Results as given in ChEMBL document CHEMBL3865792, “Antioxidant and antitumor activity of trolox, trolox succinate, and α-tocopheryl succinate conjugates with nitroxides” (Eur J Med Chem, 2016).

Test system: not listed separately
Assay: Cytotoxicity against human RPMI8226 cells assessed as reduction in cell viability after 72 hrs by MTT assay
Format: functional, cell-based
Conditions: RPMI-8226, 72 h
In the case of `Cc1c(C)c2c(c(C)c1OC(=O)CCC(=O)NC1CC(C)(C)N([O])C(C)(C)C1)CCC(C)(C(=O)NC1CC(C)(C)N([O])C(C)(C)C1)O2` (stereo not given), the IC50 is reported as 68 µM.

Test system: not listed separately
Assay: Genotoxicity in Escherichia coli PQ37 expressing lacZ gene assessed as ratio of inducible beta-galactosidase activity to alkaline phosphatase activity at 30 mM after 2 hrs by SOS-chromotest relative to control
Format: toxicity
Conditions: Escherichia coli PQ37 cells expressing lacZ gene, read-out: FC
Molecule `Cc1c(C)c2c(c(C)c1OC(=O)CCC(=O)NC1CC(C)(C)N([O])C(C)(C)C1)CCC(C)(C(=O)NC1CC(C)(C)N([O])C(C)(C)C1)O2` (stereo not given) has a fold induction at 2 h, 30000 µM of 1.

Test system: Salmonella typhimurium
Assay: Genotoxicity in Salmonella typhimurium TA102 harboring […] mutant assessed as frequency of reversion from histidine auxotrophy to prototrophy at 30 mM after 48 hrs by Ames test (reference value: 209 +/- 10 No _unit)
Format: toxicity, organism-based
Conditions: salmonella enterica subsp. enterica serovar typhimurium, 30000 µM
In the case of `Cc1c(C)c2c(c(C)c1OC(=O)CCC(=O)NC1CC(C)(C)N([O])C(C)(C)C1)CCC(C)(C(=O)NC1CC(C)(C)N([O])C(C)(C)C1)O2` (stereo not given), the Activity is reported as 203.

Test system: not listed separately
Assay: Ratio of IC50 for human MT4 cells to concentration causing antioxidant activity in Salmonella typhimurium TA102 harboring […] mutant
Format: functional
Conditions: not given
In the case of `Cc1c(C)c2c(c(C)c1OC(=O)CCC(=O)NC1CC(C)(C)N([O])C(C)(C)C1)CCC(C)(C(=O)NC1CC(C)(C)N([O])C(C)(C)C1)O2` (stereo not given), the Ratio is reported as 100 - 1000.

Test system: not listed separately
Assay: Cytotoxicity against human MCF7 cells assessed as reduction in cell viability after 72 hrs by MTT assay
Format: functional, cell-based
Conditions: MCF7, 72 h
Work on `Cc1c(C)c2c(c(C)c1OC(=O)CCC(=O)NC1CC(C)(C)N([O])C(C)(C)C1)CCC(C)(C(=O)NC1CC(C)(C)N([O])C(C)(C)C1)O2` (stereo not given) yielded an IC50 of 62 µM.

Test system: not listed separately
Assay: Cytotoxicity against mouse LMTK cells assessed as reduction in cell viability after 72 hrs by MTT assay
Format: toxicity
Conditions: not given
Molecule `Cc1c(C)c2c(c(C)c1OC(=O)CCC(=O)NC1CC(C)(C)N([O])C(C)(C)C1)CCC(C)(C(=O)NC1CC(C)(C)N([O])C(C)(C)C1)O2` (stereo not given) has an IC50 at 72 h of 133 µM.

Test system: not listed separately
Assay: Cytotoxicity against human HepG2 cells assessed as reduction in cell viability after 72 hrs by MTT assay
Format: functional, cell-based
Conditions: HepG2, 72 h
With `Cc1c(C)c2c(c(C)c1OC(=O)CCC(=O)NC1CC(C)(C)N([O])C(C)(C)C1)CCC(C)(C(=O)NC1CC(C)(C)N([O])C(C)(C)C1)O2` (stereo not given) the IC50 was 42 µM.

Test system: not listed separately
Assay: Ratio of IC50 for human CEM13 cells to concentration causing antioxidant activity in Salmonella typhimurium TA102 harboring […] mutant
Format: functional
Conditions: not given
For `Cc1c(C)c2c(c(C)c1OC(=O)CCC(=O)NC1CC(C)(C)N([O])C(C)(C)C1)CCC(C)(C(=O)NC1CC(C)(C)N([O])C(C)(C)C1)O2` (stereo not given), the Ratio was 100 - 1000.

Test system: not listed separately
Assay: Ratio of IC50 for human MCF7 cells to concentration causing antioxidant activity in Salmonella typhimurium TA102 harboring […] mutant
Format: functional
Conditions: not given
In the case of `Cc1c(C)c2c(c(C)c1OC(=O)CCC(=O)NC1CC(C)(C)N([O])C(C)(C)C1)CCC(C)(C(=O)NC1CC(C)(C)N([O])C(C)(C)C1)O2` (stereo not given), the Ratio is reported as 100 - 1000.

Test system: Salmonella enterica subsp. enterica serovar Typhimurium
Assay: Antioxidant activity in Salmonella typhimurium TA102 harboring […] mutant assessed as inhibition of t-BuO2H-dependant mutant formation at 0.3 uM preincubated with compound followed by t-BuO2H addition after 48 hrs by Ames test
Format: functional
Conditions: not given
Molecule `Cc1c(C)c2c(c(C)c1OC(=O)CCC(=O)NC1CC(C)(C)N([O])C(C)(C)C1)CCC(C)(C(=O)NC1CC(C)(C)N([O])C(C)(C)C1)O2` (stereo not given) has an inhibition of 7%.

Test system: not listed separately
Assay: Cytotoxicity against human CEM13 cells assessed as reduction in cell viability at 300 uM after 72 hrs by MTT assay
Format: functional
Conditions: CEM13, 72 h
In the case of `Cc1c(C)c2c(c(C)c1OC(=O)CCC(=O)NC1CC(C)(C)N([O])C(C)(C)C1)CCC(C)(C(=O)NC1CC(C)(C)N([O])C(C)(C)C1)O2` (stereo not given), the inhibition at 300 µM is reported as 33%.

Test system: Salmonella enterica subsp. enterica serovar Typhimurium
Assay: Antioxidant activity in Salmonella typhimurium TA102 harboring […] mutant assessed as inhibition of t-BuO2H-dependant mutant formation at 30 uM preincubated with compound followed by t-BuO2H addition after 48 hrs by Ames test
Format: functional
Conditions: not given
`Cc1c(C)c2c(c(C)c1OC(=O)CCC(=O)NC1CC(C)(C)N([O])C(C)(C)C1)CCC(C)(C(=O)NC1CC(C)(C)N([O])C(C)(C)C1)O2` (stereo not given) showed an inhibition of 25%.

Test system: not listed separately
Assay: Ratio of IC50 for human U937 cells to concentration causing antioxidant activity in Salmonella typhimurium TA102 harboring […] mutant
Format: functional, U-937
Conditions: not given
In the case of `Cc1c(C)c2c(c(C)c1OC(=O)CCC(=O)NC1CC(C)(C)N([O])C(C)(C)C1)CCC(C)(C(=O)NC1CC(C)(C)N([O])C(C)(C)C1)O2` (stereo not given), the Ratio is reported as 100 - 1000.

Test system: Salmonella enterica subsp. enterica serovar Typhimurium
Assay: Antioxidant activity in Salmonella typhimurium TA102 harboring […] mutant assessed as inhibition of t-BuO2H-dependant mutant formation at 3 uM preincubated with compound followed by t-BuO2H addition after 48 hrs by Ames test
Format: functional
Conditions: not given
`Cc1c(C)c2c(c(C)c1OC(=O)CCC(=O)NC1CC(C)(C)N([O])C(C)(C)C1)CCC(C)(C(=O)NC1CC(C)(C)N([O])C(C)(C)C1)O2` (stereo not given) gave an inhibition of 25%.

Test system: not listed separately
Assay: Ratio of IC50 for human HEPG2 cells to concentration causing antioxidant activity in Salmonella typhimurium TA102 harboring […] mutant
Format: functional
Conditions: not given
In the case of `Cc1c(C)c2c(c(C)c1OC(=O)CCC(=O)NC1CC(C)(C)N([O])C(C)(C)C1)CCC(C)(C(=O)NC1CC(C)(C)N([O])C(C)(C)C1)O2` (stereo not given), the Ratio is reported as 100 - 1000.

Test system: not listed separately
Assay: Cytotoxicity against hamster AG17-1 cells assessed as reduction in cell viability after 72 hrs by MTT assay
Format: toxicity, cell-based, Cricetulus griseus
Conditions: Chinese hamster
`Cc1c(C)c2c(c(C)c1OC(=O)CCC(=O)NC1CC(C)(C)N([O])C(C)(C)C1)CCC(C)(C(=O)NC1CC(C)(C)N([O])C(C)(C)C1)O2` (stereo not given) gave an IC50 at 72 h of 54 µM.

Test system: not listed separately
Assay: Cytotoxicity against human CEM13 cells assessed as reduction in cell viability after 72 hrs by MTT assay
Format: functional, cell-based
Conditions: CEM13, 72 h
For `Cc1c(C)c2c(c(C)c1OC(=O)CCC(=O)NC1CC(C)(C)N([O])C(C)(C)C1)CCC(C)(C(=O)NC1CC(C)(C)N([O])C(C)(C)C1)O2` (stereo not given), the IC50 was over 300 µM.

Test system: not listed separately
Assay: Cytotoxicity against human MT4 cells assessed as reduction in cell viability after 72 hrs by MTT assay
Format: functional, cell-based
Conditions: MT4, 72 h
With `Cc1c(C)c2c(c(C)c1OC(=O)CCC(=O)NC1CC(C)(C)N([O])C(C)(C)C1)CCC(C)(C(=O)NC1CC(C)(C)N([O])C(C)(C)C1)O2` (stereo not given) the IC50 was 41 µM.

Test system: not listed separately
Assay: Cytotoxicity against human U937 cells assessed as reduction in cell viability after 72 hrs by MTT assay
Format: functional, cell-based
Conditions: U-937, 72 h
Work on `Cc1c(C)c2c(c(C)c1OC(=O)CCC(=O)NC1CC(C)(C)N([O])C(C)(C)C1)CCC(C)(C(=O)NC1CC(C)(C)N([O])C(C)(C)C1)O2` (stereo not given) yielded an IC50 of 72 µM.

Test system: not listed separately
Assay: Ratio of IC50 for human RPMI8226 cells to concentration causing antioxidant activity in Salmonella typhimurium TA102 harboring […] mutant
Format: functional, RPMI-8226
Conditions: not given
With `Cc1c(C)c2c(c(C)c1OC(=O)CCC(=O)NC1CC(C)(C)N([O])C(C)(C)C1)CCC(C)(C(=O)NC1CC(C)(C)N([O])C(C)(C)C1)O2` (stereo not given) the Ratio was 100 - 1000.
